Experimental data published in patent US6395755B1, “Benzothiophene pharmaceutical compounds” (Eli Lilly and Company, priority 1995, dated 2002).
Where two headings read alike, the source gives them in different places.

Tests used:
[1] = tested on: Uterine Eosinophil Peroxidase (EPO); design: species or system Sprague Dawley rats; conditions: rat, in vivo; for Uterine EPO (V. max): po
Text: (§1) Seventy-five day old female Sprague Dawley rats (weight range of 200 to 225 g) are obtained from Charles River Laboratories (Portage, Mich.). The animals are either bilaterally ovariectomized (OVX) or exposed to a Sham surgical procedure at Charles River Laboratories, and then shipped after one week. Upon arrival, they are housed in metal hanging cages in groups of 3 or 4 per cage and have ad libitum access to food (calcium content approximately 0.5%) and water for one week. Room temperature is maintained at 22.2° ±1.7° C. with a minimum relative humidity of 40%. The photoperiod in the room is 12 hours light and 12 hours dark.
(§2) Dosing Regimen Tissue Collection. After a one week acclimation period (therefore, two weeks post-OVX) daily dosing with test compound is initiated. 17α-ethynyl estradiol or the test compound is given orally, unless otherwise stated, as a suspension in 1% carboxymethylcellulose or dissolved in 20% cyclodextrin. Animals were dosed daily for 4 days. Following the dosing regimen, animals are weighed and anesthetized with a ketamine: Xylazine (2:1, V:V) mixture and a blood sample is collected by cardiac puncture. The animals are then sacrificed by asphyxiation with CO2, the uterus is removed through a midline incision, and a wet uterine weight is determined.
Uterine Eosinophil Peroxidase (EPO) Assay. Uteri are kept at 4° C. until time of enzymatic analysis. The uteri are then homogenized in 50 volumes of 50 mM Tris buffer (pH−8.0) containing 0.005% Triton X-100. Upon addition of 0.01% hydrogen peroxide and 10 mM O-phenylenediamine (final concentrations) in Tris buffer, increase in absorbance is monitored for one minute at 450 nm. The presence of eosonophils in the uterus is an indication of estrogenic activity of a compound. The maximal velocity of a 15 second interval is determined over the initial, linear portion of the reaction curve.

[2] = tested on: Serum cholesterol; assay: Serum cholesterol in ovariectomized rats (post-menopausal model); type: in vivo, Sprague Dawley rats; conditions: oral; for Serum Cholesterol (% decrease vs. OVX): daily for 4 days
Procedure: (§3) In the examples illustrating the methods, a post-menopausal model was used in which effects of different treatments upon circulating lipids were determined.
as §1, §2
Cholesterol Analysis. Blood samples are allowed to clot at room temperature for 2 hours, and serum is obtained following centrifugation for 10 minutes at 3000 rpm. Serum cholesterol is determined using a Boehringer Mannheim Diagnostics high performance cholesterol assay. Briefly the cholesterol is oxidized to cholest-4-en-3-one and hydrogen peroxide. The hydrogen peroxide is then reacted with phenol and 4-aminophenazone in the presence of peroxidase to produce a p-quinone imine dye, which is read spectrophotemetrically at 500 nm. Cholesterol concentration is then calculated against a standard curve. The entire assay is automated using a Biomek Automated Workstation.

[3] = tested on: femur density of ovariectomized rats; assay: Osteoporosis Test Procedure (35 day OVX rat, femur density); type: in vivo; conditions: oral in 20% hydroxypropyl β-cyclodextrin, daily for 35 days
Procedure: Following the General Preparation Procedure, infra, the rats are treated daily for 35 days (6 rats per treatment group) and sacrificed by carbon dioxide asphyxiation on the 36th day. The 35 day time period is sufficient to allow maximal reduction in bone density, measured as described herein. At the time of sacrifice, the uteri are removed, dissected free of extraneous tissue, and the fluid contents are expelled before determination of wet weight in order to confirm estrogen deficiency associated with complete ovariectomy. […] The uteri are then placed in 10% neutral buffered formalin to allow for subsequent histological analysis. The right femurs are excised and digitilized x-rays generated and analyzed by an image analysis program (NIH image) at the distal metaphysis. The proximal aspect of the tibiae from these animals are also scanned by quantitative computed tomography. In accordance with the above procedures, compounds of the present invention and ethynyl estradiol (EE2) in 20% hydroxypropyl β-cyclodextrin are orally administered to test animals.

[4] = tested on: uterus of ovariectomized (OVX) rats; design: species or system Sprague Dawley rats; conditions: rat, in vivo, po, 0.1 mg/kg/day
Procedure: as §3, §1
as §2, with “Following the dosing regimen, animals are weighed and anesthetized with a ketamine: Xylazine (2:1, V:V) mixture and a blood sample is collected by cardiac puncture.” left out

Structure (SMILES) | Uterine EPO (V. max) ([1]; 0.01 mg/kg) | Uterine EPO (V. max) ([1]; 0.1 mg/kg) | Uterine EPO (V. max) ([1]; 1 mg/kg) | Uterine EPO (V. max) ([1]; 5 mg/kg) | Serum Cholesterol (% decrease vs. OVX) ([2]; dose 0.01 mg/kg) | Serum Cholesterol (% decrease vs. OVX) ([2]; dose 0.1 mg/kg) | Serum Cholesterol (% decrease vs. OVX) ([2]; dose 1.0 mg/kg) | Serum Cholesterol (% decrease vs. OVX) ([2]; dose 5.0 mg/kg) | Prevention of loss of femur density / bone loss after ovariectomy [3] | Eosinophil infiltration into the uterus (stromal layer), in words [1] | Effect on uterine weight compared to ovariectomized animals (in words) [4] | Effect on serum cholesterol compared to ovariectomized controls (in words) ([2]; OVX rats, EE2 at 0.1 mg/kg/day)
CC(c1ccc(OCCN2CCCCC2)cc1)c1c(-c2ccc(O)cc2)sc2cc(O)ccc12 (stereo not drawn) [Example 4] | 4.5 | 3.6 | 5.4 | 3.9 | −26.5% | 10.4% | 43.9% | 35.2% | – | – | – | –
Oc1ccc(-c2sc3cc(O)ccc3c2C(O)(c2ccccc2)c2ccc(OCCN3CCCCC3)cc2)cc1 (stereo not drawn) [Example 8] | 4.2 | 3.6 | 4.5 | 35.1 | −9.0% | −3.1% | 14.0% | 56.9% | – | – | – | –
O=C(c1ccc(OCCN2CCCCC2)cc1)c1c(-c2ccc(O)cc2)sc2cc(O)ccc12 [Raloxifene, reference compound] | 3.9 | 5.4 | 4.5 | – | 12.0% | 30.4% | 60.6% | – | – | – | – | –

Continued, in another order:

Uterine EPO (V. max) ([1]; 0.01 mg/kg) | Uterine EPO (V. max) ([1]; 0.1 mg/kg) | Uterine EPO (V. max) ([1]; 1 mg/kg) | Uterine EPO (V. max) ([1]; 5 mg/kg) | Structure (SMILES) | Serum Cholesterol (% decrease vs. OVX) ([2]; dose 0.01 mg/kg) | Serum Cholesterol (% decrease vs. OVX) ([2]; dose 0.1 mg/kg) | Serum Cholesterol (% decrease vs. OVX) ([2]; dose 1.0 mg/kg) | Serum Cholesterol (% decrease vs. OVX) ([2]; dose 5.0 mg/kg) | Prevention of loss of femur density / bone loss after ovariectomy [3] | Eosinophil infiltration into the uterus (stromal layer), in words [1] | Effect on uterine weight compared to ovariectomized animals (in words) [4] | Effect on serum cholesterol compared to ovariectomized controls (in words) ([2]; OVX rats, EE2 at 0.1 mg/kg/day)
4.2 | 5.1 | 7.8 | 5.7 | CC(O)(c1ccc(OCCN2CCCCC2)cc1)c1c(-c2ccc(O)cc2)sc2cc(O)ccc12 (stereo not drawn) [Example 2] | −10.2% | 19.4% | 50.7% | 53.9% | – | – | – | –
– | 189.6 | – | – | C#C[C@]1(O)CC[C@H]2[C@@H]3CCc4cc(O)ccc4[C@H]3CC[C@@]21C [EE2, 17α-ethynyl estradiol, reference compound] | – | 84.8% | – | – | prevented this loss | substantial, expected increase in eosinophil infiltration | substantially greater than the uterine weight of ovariectomized test animals | caused a decrease in serum cholesterol
